Results published in ChEMBL document CHEMBL1201861, “Genomics of Drug Sensitity in Cancer screening data, Wellcome Trust Sanger Institute”.

Assays:
Test in all cases: cells
TCC-SUP = assay type: functional, cell-based, Homo sapiens
Description: SANGER: Inhibition of human TCCSUP cell growth in a cell viability assay.

UACC-893 = assay type: functional, cell-based, Homo sapiens
Description: SANGER: Inhibition of human UACC-893 cell growth in a cell viability assay.

CAPAN-1 = assay type: functional, cell-based, Homo sapiens
Description: SANGER: Inhibition of human CAPAN-1 cell growth in a cell viability assay.

Daoy = assay type: functional, cell-based, Homo sapiens
Description: SANGER: Inhibition of human Daoy cell growth in a cell viability assay.

SK-HEP1 = assay type: functional, cell-based, Homo sapiens, SK-HEP-1
Description: SANGER: Inhibition of human SK-HEP-1 cell growth in a cell viability assay.

OVCAR-8 = assay type: functional, cell-based, Homo sapiens
Description: SANGER: Inhibition of human OVCAR-8 cell growth in a cell viability assay.

BPH-1 = assay type: functional, cell-based, Homo sapiens
Description: SANGER: Inhibition of human BPH-1 cell growth in a cell viability assay.

PFSK-1 = assay type: functional, cell-based, Homo sapiens
Description: SANGER: Inhibition of human PFSK-1 cell growth in a cell viability assay.

SCC-9 = assay type: functional, cell-based, Homo sapiens
Description: SANGER: Inhibition of human SCC-9 cell growth in a cell viability assay.

D-566MG = assay type: functional, cell-based, Homo sapiens
M14 = assay type: functional, cell-based, Homo sapiens
Description: SANGER: Inhibition of human M14 cell growth in a cell viability assay.

UO-31 = assay type: functional, cell-based, Homo sapiens
Description: SANGER: Inhibition of human U031 cell growth in a cell viability assay.

BT-20 = assay type: functional, cell-based, Homo sapiens
Description: SANGER: Inhibition of human BT-20 cell growth in a cell viability assay.

AGS = assay type: functional, cell-based, Homo sapiens
Description: SANGER: Inhibition of human AGS cell growth in a cell viability assay.

OE33 = assay type: functional, cell-based, Homo sapiens
Description: SANGER: Inhibition of human OE33 cell growth in a cell viability assay.

SW1088 = assay type: functional, cell-based, Homo sapiens
Description: SANGER: Inhibition of human SW1088 cell growth in a cell viability assay.

OVCAR-3 = assay type: functional, cell-based, Homo sapiens
Description: SANGER: Inhibition of human OVCAR-3 cell growth in a cell viability assay.

LCLC-103H cell line = assay type: functional, cell-based, Homo sapiens
Description: SANGER: Inhibition of human LCLC-103H cell growth in a cell viability assay.

PC-14 = assay type: functional, cell-based, Homo sapiens
Description: SANGER: Inhibition of human PC-14 cell growth in a cell viability assay.

SK-MEL-30 = assay type: functional, cell-based, Homo sapiens
Description: SANGER: Inhibition of human SK-MEL-30 cell growth in a cell viability assay.

COLO-792 = assay type: functional, cell-based, Homo sapiens
Description: SANGER: Inhibition of human COLO-792 cell growth in a cell viability assay.

KYSE-70 cell line = assay type: functional, cell-based, Homo sapiens
Description: SANGER: Inhibition of human KYSE-70 cell growth in a cell viability assay.

HT1197 = assay type: functional, cell-based, Homo sapiens, HT-1197
Description: SANGER: Inhibition of human HT-1197 cell growth in a cell viability assay.

SK-LU-1 = assay type: functional, cell-based, Homo sapiens
Description: SANGER: Inhibition of human SK-LU-1 cell growth in a cell viability assay.

NCI-H1573 = assay type: functional, cell-based, Homo sapiens
Description: SANGER: Inhibition of human NCI-H1573 cell growth in a cell viability assay.

MEL-HO = assay type: functional, cell-based, Homo sapiens
Description: SANGER: Inhibition of human MEL-HO cell growth in a cell viability assay.

Detroit 562 = assay type: functional, cell-based, Homo sapiens
Description: SANGER: Inhibition of human Detroit562 cell growth in a cell viability assay.

KOSC-2 = assay type: functional, cell-based, Homo sapiens
Description: SANGER: Inhibition of human KOSC-2 cell growth in a cell viability assay.

OAW-42 = assay type: functional, cell-based, Homo sapiens
Description: SANGER: Inhibition of human OAW-42 cell growth in a cell viability assay.

EGI-1 = assay type: functional, cell-based, Homo sapiens
Description: SANGER: Inhibition of human EGI-1 cell growth in a cell viability assay.

CAKI-1 = assay type: functional, cell-based, Homo sapiens
Description: SANGER: Inhibition of human CAKI-1 cell growth in a cell viability assay.

NCI-H1792 = assay type: functional, cell-based, Homo sapiens
Description: SANGER: Inhibition of human NCI-H1792 cell growth in a cell viability assay.

HT-1376 = assay type: functional, cell-based, Homo sapiens
Description: SANGER: Inhibition of human HT-1376 cell growth in a cell viability assay.

SW626 = assay type: functional, cell-based, Homo sapiens
Description: SANGER: Inhibition of human SW626 cell growth in a cell viability assay.

KYSE-520 cell line = assay type: functional, cell-based, Homo sapiens
Description: SANGER: Inhibition of human KYSE-520 cell growth in a cell viability assay.

KYSE-150 cell line = assay type: functional, cell-based, Homo sapiens
Description: SANGER: Inhibition of human KYSE-150 cell growth in a cell viability assay.

HT55 = assay type: functional, cell-based, Homo sapiens
Description: SANGER: Inhibition of human HT55 cell growth in a cell viability assay.

RPMI-7951 = assay type: functional, cell-based, Homo sapiens
Description: SANGER: Inhibition of human RPMI-7951 cell growth in a cell viability assay.

## CO[C@H]1C[C@@H]2CC[C@@H](C)[C@@](O)(O2)C(=O)C(=O)N2CCCC[C@H]2C(=O)O[C@H]([C@H](C)C[C@@H]2CC[C@@H](OC(=O)C(C)(CO)CO)[C@H](OC)C2)CC(=O)[C@H](C)/C=C(\C)[C@@H](O)[C@@H](OC)C(=O)[C@H](C)C[C@H](C)/C=C/C=C/C=C/1C [TEMSIROLIMUS]
TCC-SUP; Homo sapiens, TCC-SUP
  IC50: 0.0823 µM
UACC-893; Homo sapiens, UACC-893
  IC50: > 0.2 µM
CAPAN-1; Homo sapiens, CAPAN-1
  IC50: > 0.2 µM
Daoy; Homo sapiens, Daoy
  IC50: 51.7 nM
SK-HEP1; Homo sapiens, SK-HEP1
  IC50: > 0.2 µM
OVCAR-8; Homo sapiens, OVCAR-8
  IC50: 0.136 µM
BPH-1; Homo sapiens, BPH-1
  IC50: 0.0324 µM
PFSK-1; Homo sapiens, PFSK-1
  IC50: 0.0277 µM
SCC-9; Homo sapiens, SCC-9
  IC50: > 0.2 µM
D-566MG; Homo sapiens, D-566MG
  IC50: 0.00716 µM
M14; Homo sapiens, M14
  IC50: > 200 nM
UO-31; Homo sapiens, UO-31
  IC50: > 0.2 µM
BT-20; Homo sapiens, BT-20
  IC50: > 0.2 µM
AGS; Homo sapiens, AGS
  IC50: 0.0141 µM
OE33; Homo sapiens, OE33
  IC50: > 0.2 µM
SW1088; Homo sapiens, SW1088
  IC50: 0.0318 µM
OVCAR-3; Homo sapiens, OVCAR-3
  IC50: > 0.2 µM
LCLC-103H cell line; Homo sapiens, LCLC-103H
  IC50: > 0.2 µM
PC-14; Homo sapiens, PC-14
  IC50: > 0.2 µM
SK-MEL-30; Homo sapiens, SK-MEL-30
  IC50: > 0.2 µM
COLO-792; Homo sapiens, COLO-792
  IC50: > 0.2 µM
KYSE-70 cell line; Homo sapiens, KYSE-70
  IC50: > 0.2 µM
HT1197; Homo sapiens, HT1197
  IC50: > 0.2 µM
SK-LU-1; Homo sapiens, SK-LU-1
  IC50: 0.102 µM
NCI-H1573; Homo sapiens, NCI-H1573
  IC50: > 0.2 µM
MEL-HO; Homo sapiens, MEL-HO
  IC50: 33.6 nM
Detroit 562; Homo sapiens, Detroit 562
  IC50: > 0.2 µM
KOSC-2; Homo sapiens, KOSC-2
  IC50: 167 nM
OAW-42; Homo sapiens, OAW-42
  IC50: > 0.2 µM
EGI-1; Homo sapiens, EGI-1
  IC50: 0.022 µM
CAKI-1; Homo sapiens, CAKI-1
  IC50: 0.0687 µM
NCI-H1792; Homo sapiens, NCI-H1792
  IC50: > 0.2 µM
HT-1376; Homo sapiens, HT-1376
  IC50: > 0.2 µM
SW626; Homo sapiens, SW626
  IC50: > 0.2 µM
KYSE-520 cell line; Homo sapiens, KYSE-520
  IC50: 0.139 µM
KYSE-150 cell line; Homo sapiens, KYSE-150
  IC50: > 0.2 µM
HT55; Homo sapiens, HT55
  IC50: > 0.2 µM
RPMI-7951; Homo sapiens, RPMI-7951
  IC50: 0.039 µM

## CS(=O)(=O)c1ccc(C(=O)Nc2ccc(Cl)c(-c3ccccn3)c2)c(Cl)c1 [VISMODEGIB]
TCC-SUP; Homo sapiens, TCC-SUP
  IC50: > 10 µM
UACC-893; Homo sapiens, UACC-893
  IC50: > 10 µM
CAPAN-1; Homo sapiens, CAPAN-1
  IC50: > 10 µM
Daoy; Homo sapiens, Daoy
  IC50: > 10000 nM
SK-HEP1; Homo sapiens, SK-HEP1
  IC50: > 10 µM
OVCAR-8; Homo sapiens, OVCAR-8
  IC50: > 10 µM
BPH-1; Homo sapiens, BPH-1
  IC50: > 10 µM
PFSK-1; Homo sapiens, PFSK-1
  IC50: > 10 µM
SCC-9; Homo sapiens, SCC-9
  IC50: > 10 µM
D-566MG; Homo sapiens, D-566MG
  IC50: > 10 µM
M14; Homo sapiens, M14
  IC50: > 10000 nM
UO-31; Homo sapiens, UO-31
  IC50: > 10 µM
BT-20; Homo sapiens, BT-20
  IC50: > 10 µM
AGS; Homo sapiens, AGS
  IC50: > 10 µM
OE33; Homo sapiens, OE33
  IC50: > 10 µM
SW1088; Homo sapiens, SW1088
  IC50: > 10 µM
OVCAR-3; Homo sapiens, OVCAR-3
  IC50: > 10 µM
LCLC-103H cell line; Homo sapiens, LCLC-103H
  IC50: > 10 µM
PC-14; Homo sapiens, PC-14
  IC50: > 10 µM
SK-MEL-30; Homo sapiens, SK-MEL-30
  IC50: > 10 µM
COLO-792; Homo sapiens, COLO-792
  IC50: > 10 µM
KYSE-70 cell line; Homo sapiens, KYSE-70
  IC50: > 10 µM
HT1197; Homo sapiens, HT1197
  IC50: > 10 µM
SK-LU-1; Homo sapiens, SK-LU-1
  IC50: > 10 µM
NCI-H1573; Homo sapiens, NCI-H1573
  IC50: > 10 µM
MEL-HO; Homo sapiens, MEL-HO
  IC50: > 10000 nM
Detroit 562; Homo sapiens, Detroit 562
  IC50: > 10 µM
KOSC-2; Homo sapiens, KOSC-2
  IC50: > 10000 nM
OAW-42; Homo sapiens, OAW-42
  IC50: > 10 µM
EGI-1; Homo sapiens, EGI-1
  IC50: > 10 µM
CAKI-1; Homo sapiens, CAKI-1
  IC50: > 10 µM
NCI-H1792; Homo sapiens, NCI-H1792
  IC50: > 10 µM
HT-1376; Homo sapiens, HT-1376
  IC50: > 10 µM
SW626; Homo sapiens, SW626
  IC50: > 10 µM
KYSE-520 cell line; Homo sapiens, KYSE-520
  IC50: > 10 µM
KYSE-150 cell line; Homo sapiens, KYSE-150
  IC50: > 10 µM
HT55; Homo sapiens, HT55
  IC50: > 10 µM
RPMI-7951; Homo sapiens, RPMI-7951
  IC50: > 10 µM

## CISPLATIN
TCC-SUP; tcc-sup
  IC50: 8.5 µM
UACC-893; uacc-893
  IC50: 26.1 µM
CAPAN-1; capan-1
  IC50: 24.3 µM
Daoy; daoy
  IC50: 1510 nM
SK-HEP1; sk-hep-1
  IC50: 28.9 µM
OVCAR-8; ovcar-8
  IC50: 19.9 µM
BPH-1; bph-1
  IC50: 17.9 µM
PFSK-1; pfsk-1
  IC50: 37.7 µM
SCC-9; scc-9
  IC50: 23.6 µM
D-566MG; d-566mg
  IC50: 3.48 µM
M14; m14
  IC50: 2790 nM
UO-31; uo-31
  IC50: 12.9 µM
BT-20; bt-20
  IC50: 213 µM
AGS; ags
  IC50: 24.6 µM
OE33; oe33
  IC50: 22.5 µM
SW1088; sw1088
  IC50: 9.7 µM
OVCAR-3; ovcar-3
  IC50: 696 µM
LCLC-103H cell line; lclc-103h
  IC50: 28.2 µM
PC-14; pc-14
  IC50: 5.72 µM
SK-MEL-30; sk-mel-30
  IC50: 480 µM
COLO-792; colo-792
  IC50: 5.73 µM
KYSE-70 cell line; kyse-70
  IC50: 48.7 µM
HT1197; ht-1197
  IC50: 13.3 µM
SK-LU-1; sk-lu-1
  IC50: 7.38 µM
NCI-H1573; nci-h1573
  IC50: 112 µM
MEL-HO; mel-ho
  IC50: 1070 nM
Detroit 562; detroit 562
  IC50: 38.3 µM
KOSC-2; kosc-2
  IC50: 2910 nM
OAW-42; oaw-42
  IC50: 8.63 µM
EGI-1; egi-1
  IC50: 11.1 µM
CAKI-1; caki-1
  IC50: 7.27 µM
NCI-H1792; nci-h1792
  IC50: 14.9 µM
HT-1376; ht-1376
  IC50: 98.9 µM
SW626; sw626
  IC50: 33.1 µM
KYSE-520 cell line; kyse-520
  IC50: 21.8 µM
KYSE-150 cell line; kyse-150
  IC50: 411 µM
HT55; ht55
  IC50: 118 µM
RPMI-7951; rpmi-7951
  IC50: 4.06 µM
